Measurements as given in PMC7403980, “Anti-Inflammatory Effects of the Novel PIM Kinase Inhibitor KMU-470 in RAW 264.7 Cells through the TLR4-NF-κB-NLRP3 Pathway” (International Journal of Molecular Sciences, 2020).

How the values were obtained:
Type in all cases: cell-based, murine
MyD88 = test: LPS-induced MyD88 protein expression in RAW 264.7 cells (Western blot); settings: KMU-470 0.5 and 1 μM 30 min, LPS 6 h
Protocol: Figure 4 Inhibitory effect of KMU-470 on LPS-induced TLR4 and MyD88 protein expression in RAW 264.7 cells. (A,B) Cells were pre-treated with 0.5 and 1 μM of KMU-470 for 30 min prior to LPS treatment. Then, total protein was isolated after 6 h exposure to LPS. The protein expression level of TLR4 and MyD88 were assessed using Western blot analysis. (C,D) The relative optical densities of TLR4 and MyD88 bands were analyzed by the Image-J program. *** p < 0.001.
RAW 264.7 cells were pre-treated with KMU-470 (0.5–1 μM/mL) for 24 h and stimulated with LPS (50 ng/mL) for 6 h. After stimulation, total cells were harvested, washed with PBS buffer, and then the total protein was extracted with a RIPA buffer (0.1 mM sodium orthovanadate, 137 mM NaCl, 15 mM EGTA, 0.1% Triton X-100, 25 mM MOPS, 15 mM MgCl2, 100 μM phenylmethylsulfonyl fluoride, and 20 μM leupeptin, adjusted to pH 7.2). The cell culture media supernatants were precipitated using TCA (trichloroacetic acid, protocol by Luis Sanchez 2001). A BCA protein assay kit (Thermo Scientific, Wilmington, USA) was used for the determination of the protein concentration. […] Immunoreactive proteins were detected using the ELC Western blot detection system kit (Millipore). Signal intensity was measured using the Chemi Image documentation system (Fusion Fx7, VILBER LOUTMAT). Protein expression levels were quantified using the Image J program.

pro-caspase-1 = test: Pro-caspase-1 protein expression in LPS-treated RAW 264.7 cells (Western blot); settings: KMU-470 0.1, 0.5, 1 μM 30 min, LPS 50 ng/mL 6 h
Protocol: Figure 6 Inhibitory effect of KMU-470 on LPS-induced up-regulation of pro-inflammatory cytokines and activation of NLRP3 inflammasome in RAW 264.7 cells. (A–C) Cells were treated with KMU-470 for 30 min and stimulated with LPS 50 ng/mL for 6 h. The levels of IL-1β, TNF-α, and IL-6 were determined using real time PCR. *** p < 0.001, *p < 0.05. (D) Cells were pre-treated with 0.1, 0.5, and 1 μM of KMU-470 for 30 min and treated with LPS 50 ng/mL for 6 h, respectively. Whole cell lysates were isolated and used to measure the protein expression levels of pro-IL-1β and β-actin by Western blot analysis. (E) Cells were pre-treated with 0.1, 0.5, and 1 μM of KMU-470 for 30 min and treated with LPS 50 ng/mL for 6 h, respectively. Whole cell lysates were isolated and used to measure the protein expression levels of […], ASC, pro-caspase-1, pro-IL-1β, and β-actin by Western blot analysis.
(§1) RAW 264.7 cells were pre-treated with KMU-470 (0.5–1 μM/mL) for 24 h and stimulated with LPS (50 ng/mL) for 6 h. […] Immunoreactive proteins were detected using the ELC Western blot detection system kit (Millipore). Signal intensity was measured using the Chemi Image documentation system (Fusion Fx7, VILBER LOUTMAT). Protein expression levels were quantified using the Image J program.

RAW 264.7 cells = test: Toxicity / cell viability in RAW 264.7 cells (microscopy, trypan blue, XTT); settings: up to 1 µM, 24 h, trypan blue cell count
Protocol: (§2) Figure 3 Inhibitory effect of KMU-470 on LPS-induced NO production and iNOS protein expression, and cell viability in RAW 264.7 cells. (A) The cells were pre-treated with KMU-470 at a concentration of 1 μM for 30 min and then treated with different concentrations of LPS for 24 h. Nitrite in the culture supernatant was collected and evaluated using Griess reagent. Absorbance was measured at 540 nm. *** p < 0.001, ** p < 0.01, * p < 0.05. (B) Cells are pre-treated with two different concentrations of KMU-470 (0.5 μM and 1 μM) for 30 min, followed by treatment with 1 μg/mL LPS for 24 h. β-actin was used as an internal control for Western blot analysis. (C) Image-J program was used to analyze the relative optical density of the iNOS band. (D) Cells were treated with various concentrations of KMU-470 for 24 h. The effects of KMU-470 on cell proliferation and morphological changes were observed by microscopy (X100). (E) The cell proliferation rate was determined by cell count using a trypan blue exclusion assay. *p < 0.05 (F) Effect of KMU-470 on cell viability was measured by XTT assay. *** p < 0.001.
The cell viability assay was performed using a 2,3-bis (2-methoxy-4-nitro-5-sulphonyl)-2H-tetrazolium-5-carboxanilide (XTT) assay (Welgene Inc, Daegu, Korea). […] The optical density (OD) was measured using a microplate reader (BMG Labtech, Ortenberg, Germany) at a 450 nm wavelength. […]

NO production = test: LPS-induced NO production in RAW 264.7 cells (Griess reagent); settings: KMU-470 1 μM 30 min pre-treatment, LPS 50, 200, 1000 ng/mL 24 h
Protocol: as §2
The amount of nitrite accumulated in the cell culture medium was measured directly using a Griess reagent as an indicator of NO production. […] The OD was measured by spectrophotometer (BMG Labtech, Ortenberg, Germany) at 540 nm. […]

iNOS protein = test: LPS-induced iNOS protein expression in RAW 264.7 cells (Western blot); settings: KMU-470 0.5 and 1 μM 30 min, LPS 1 μg/mL 24 h
Protocol: as §2, with “The effects of KMU-470 on cell proliferation and morphological changes were observed by microscopy (X100).” left out
as §1

Compound: CN(C)CCNc1cncc(-c2ccc3c(c2)/C(=C/c2cnc[nH]2)C(=O)N3)n1 [KMU-470, (Z)-3-((1H-Imidazol-5-yl)methylene)-5-(6-((2-(dimethylamino)ethyl)amino)pyrazin-2-yl)indolin-2-one]
- Up-regulation of MyD88 protein by LPS (MyD88): suppressed
- Pro-caspase-1 expression (pro-caspase-1): not changed
- Toxicity in RAW 264.7 cells (RAW 264.7 cells): no toxicity
- LPS-induced NO production (NO production): suppressed
- LPS-induced up-regulation of iNOS protein (iNOS protein): attenuated
